One series deals with VIM-2 (Escherichia coli, UniProt Q5U7L7). As to the kind of experiment: MBL inhibition, FC-5 fluorescence assay, VIM-2. Format: biochemical. The settings on record: FC-5 cephalosporin substrate, ranges of obtained pIC50, read-out: pIC50 VIM-2 (converted). The method in brief: (§1)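 Compound dilutions are incubated with enzyme and FC-5; the released fluorophore is read kinetically at ex 380/em 460 nm. Initial velocities are normalized and fitted (log inhibitor vs response, variable slope).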

For a further series, the target named is NDM-1 (Klebsiella pneumoniae, UniProt C7C422). As to the kind of experiment: MBL inhibition, FC-5 fluorescence assay, NDM-1. Format: biochemical. The settings on record: FC-5 cephalosporin substrate, fluorescence; ranges of obtained pIC50; read-out: pIC50 NDM-1 (converted). The method in brief: as §1
A further series addresses IMP-1 (Serratia marcescens, UniProt P52699). Put plainly: MBL inhibition, FC-5 fluorescence assay, IMP-1. Conditions: FC-5 cephalosporin substrate, fluorescence; ranges of obtained pIC50; read-out: pIC50 IMP-1 (converted). Format: biochemical. The essentials: as §1
Another series concerns the target VIM-1 (Pseudomonas aeruginosa, UniProt A0A0F7KYQ8). Put plainly: MBL inhibition, FC-5 fluorescence assay, VIM-1. Format: biochemical. The settings on record: FC-5 cephalosporin substrate, ranges of obtained pIC50, read-out: pIC50 VIM-1 (converted). The method in brief:
as §1

The subject of series [1] is Acinetobacter baumannii NDM-1. As to the kind of experiment: Antibiotic susceptibility testing (MIC), AB NDM-1. Conditions: agar or broth dilution (CLSI/EUCAST). Format: cell-based. As for the experimental part: (§2) Antibiotic susceptibility testing was performed using the agar or broth dilution method, in line with the Clinical and Laboratory Standards Institute (CLSI) and European Committee on Antimicrobial Susceptibility Testing (EUCAST) requirements.

For the next series, the system named is Escherichia coli NDM-7. As to the kind of experiment: Antibiotic susceptibility testing (MIC), EC NDM-7. The settings on record: agar or broth dilution (CLSI/EUCAST). Format: cell-based. As to the method: as §2
A further series relates to Escherichia coli NDM-1. Put plainly: Antibiotic susceptibility testing (MIC), EC NDM-1. The settings on record: agar or broth dilution (CLSI/EUCAST). Format: cell-based. As for the experimental part: as §2
Background: In broth dilution the organism is exposed to a series of concentrations in liquid medium.

Series [2] can be described thus: Metabolic stability in human hepatocytes. Format: in vitro ADME. The settings on record: cryopreserved human hepatocytes, 1 μM compound, 37° C., up to 90 min, read-out: Metabolic stability in hepatocytes, in vitro t1/2, Human. As to the method: (§3) Metabolic stability assays were performed in cryopreserved human and mouse hepatocytes. The hepatocytes were thawed and added to “Thawing media”, and centrifuged to pellet the hepatocytes. The cell pellet was taken up in Williams medium E (Invitrogen A1217601), the number of cells was calculated and adjusted to 1.0×10^6 cells/mi. The incubation was carried out on a heater-shaker at […], in a 24-well Picoplate (round bottom, PerkinElmer), using an incubation volume of […]. Thus, to obtain a final compound concentration of 1 μM, 0.7 μl of the 1 mM compound stock solution was pipetted to the wells of the plate. Reaction was initiated by adding 700 μl of cell suspension. Samples were incubated at 37° C. for […] and a zero sample was taken, i.e. 100 μl sample was removed to a 96-well plate and the reaction was quenched by adding 100 μl of 100% MeCN containing 50 nM Warfarin as an internal control. Consecutive samples were taken at time-points 5 min, 15 min, 30 min, 60 min, and 90 min. After finishing the experiment, samples were centrifuged at 3000 rpm for 15 min and before analysis by LC-MS/MS (Waters Corp, Milford, MA, USA).

Series [3] is described as follows: Metabolic stability in mouse hepatocytes. Format: in vitro ADME. Conditions: cryopreserved mouse hepatocytes, 1 μM compound, 37° C., up to 90 min, read-out: Metabolic stability in hepatocytes, in vitro t1/2, Mouse. As to the method: as §3
The nature of series [4]: Plasma protein binding, equilibrium dialysis, human plasma. The settings on record: pH 7.4, equilibrium dialysis (RED) 4 hours at 37° C., read-out: Plasma protein binding, fu, Human. Format: in vitro ADME. The essentials:
(§4)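 Compound at 10 μM in plasma dialysed against 67 mM phosphate buffer pH 7.4 for 4 h at 37° C. in RED device; unbound fraction from buffer and plasma levels by LC-MS/MS. Plasma stability checked in parallel over 4 h at 37° C. versus frozen control.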
For orientation: Equilibrium dialysis compares concentrations on both sides of a semipermeable membrane.

Series [5] can be described thus: Plasma protein binding, equilibrium dialysis, mouse plasma. Format: in vitro ADME. The settings on record: pH 7.4, equilibrium dialysis (RED) 4 hours at 37° C., read-out: Plasma protein binding, fu, Mouse. The method in brief: as §4

IMP-1, sequence (P52699 19-246, looked up, species assumed): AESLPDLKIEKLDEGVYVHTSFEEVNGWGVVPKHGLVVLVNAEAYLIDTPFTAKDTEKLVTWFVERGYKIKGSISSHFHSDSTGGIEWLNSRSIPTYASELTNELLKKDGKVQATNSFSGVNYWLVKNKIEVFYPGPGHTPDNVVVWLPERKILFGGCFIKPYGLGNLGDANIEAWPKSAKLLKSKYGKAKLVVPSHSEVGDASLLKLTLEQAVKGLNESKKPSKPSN
NDM-1, sequence (C7C422 29-270, looked up, species assumed): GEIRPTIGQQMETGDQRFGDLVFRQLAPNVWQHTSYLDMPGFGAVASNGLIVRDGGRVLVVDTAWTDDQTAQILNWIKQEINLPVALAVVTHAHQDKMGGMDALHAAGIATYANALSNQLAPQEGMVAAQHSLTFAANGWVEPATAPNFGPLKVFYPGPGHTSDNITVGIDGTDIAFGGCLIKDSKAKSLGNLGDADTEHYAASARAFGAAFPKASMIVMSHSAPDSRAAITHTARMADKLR

For the molecule `C[C@@H](c1cccc2c(-c3ccc(CS(C)(=O)=O)c(F)c3)c(C(=O)O)[nH]c12)N1CC2(CN(C(=N)N)C2)OC1=O` [IC-66, (S)-7-(1-(2-carbamimidoyl-6-oxo-5-oxa-2,7-diazaspiro[3.4]octan-7-yl)ethyl)-3-(3-fluoro-4-((methylsulfonyl)methyl)phenyl)-1H-indole-2-carboxylic acid], the IC50 on VIM-2 was 0.1 to 1 nM; on NDM-1, 0.1 to 1 nM; on IMP-1, greater than 10 nM; on VIM-1, 0.1 to 1 nM. In addition, the “MIC values AB NDM-1” value in [1] was “B (B MIC values 2 ÷ 8)”. In addition, in the series with Escherichia coli NDM-7, the “MIC values EC NDM-7” value is listed as “A (A = MIC values ≤ 1)”. In addition, in the series with Escherichia coli NDM-1, the “MIC values EC NDM-1” value is reported as “A (A = MIC values ≤ 1)”. Besides, the half-life at 1 μM in series [2] was 2.5 to 6.67 h; in series [3], greater than 6.67 h. Besides, the fraction unbound at 4 h, 10 μM was greater than 0.25 in series [4] and 0.005 to 0.05 in series [5].

As to `C[C@@H](c1cccc2c(-c3ccc(CS(C)(=O)=O)c(F)c3)c(C(=O)O)[nH]c12)n1cc(CN2CC(N)C2)oc1=O` [IC-67, (S)-7-(1-(5-((3-aminoazetidin-1-yl)methyl)-2-oxooxazol-3(2H)-yl)ethyl)-3-(3-fluoro-4-((methylsulfonyl)methyl)phenyl)-1H-indole-2-carboxylic acid], the IC50 is 0.1 to 1 nM on VIM-2, less than 0.1 nM at NDM-1, greater than 10 nM on IMP-1 and 1 to 10 nM on VIM-1. The “MIC values AB NDM-1” value in [1] is “B (B MIC values 2 ÷ 8)”. For the same molecule, the “MIC values EC NDM-7” value with Escherichia coli NDM-7 was “A (A = MIC values ≤ 1)”. The “MIC values EC NDM-1” value with Escherichia coli NDM-1 is reported as “A (A = MIC values ≤ 1)”. The half-life at 1 μM in [2] and in series [3] was greater than 6.67 h throughout. Further, the values for the fraction unbound at 4 h, 10 μM in [4] and in series [5] were 0.05 to 0.25 and 0.005 to 0.05, respectively.

As to `C[C@@H](c1cccc2c(-c3ccc(CS(C)(=O)=O)c(F)c3)c(C(=O)O)[nH]c12)n1cc(CCC2(N)CC2)oc1=O` [IC-69, (S)-7-(1-(5-(2-(1-Aminocyclopropyl)ethyl)-2-oxooxazol-3(2H)-yl)ethyl)-3-(3-fluoro-4-((methylsulfonyl)methyl)phenyl)-1H-indole-2-carboxylic acid], the IC50 at VIM-2 was 0.1 to 1 nM; on NDM-1 it was less than 0.1 nM; on IMP-1 it was greater than 10 nM; on VIM-1, 0.1 to 1 nM. Besides, the “MIC values AB NDM-1” value in series [1] is listed as “B (B MIC values 2 ÷ 8)”. For the same molecule, in the series on Escherichia coli NDM-7, the “MIC values EC NDM-7” value was “A (A = MIC values ≤ 1)”. The “MIC values EC NDM-1” value in the series with Escherichia coli NDM-1 is given as “A (A = MIC values ≤ 1)”. Besides, the half-life at 1 μM was greater than 6.67 h in series [2] and less than 2.5 h in series [3]. Moreover, the values for the fraction unbound at 4 h, 10 μM in [4] and in [5] were 0.05 to 0.25 and 0.005 to 0.05, respectively.

Regarding `C[C@@H](c1cccc2c(-c3ccc(CS(C)(=O)=O)c(F)c3)c(C(=O)O)[nH]c12)n1cc(CCCN)oc1=O` [IC-70, (S)-7-(1-(5-(3-aminopropyl)-2-oxooxazol-3(2H)-yl)ethyl)-3-(3-fluoro-4-((methylsulfonyl)methyl)phenyl)-1H-indole-2-carboxylic acid], the IC50 was 0.1 to 1 nM at VIM-2, less than 0.1 nM on NDM-1, greater than 10 nM at IMP-1 and 0.1 to 1 nM on VIM-1. Also, in series [1], the “MIC values AB NDM-1” value is reported as “A (A = MIC values ≤ 1)”. The “MIC values EC NDM-7” value in the series on Escherichia coli NDM-7 is “A (A = MIC values ≤ 1)”. For the same molecule, in the series with Escherichia coli NDM-1, the “MIC values EC NDM-1” value is recorded as “A (A = MIC values ≤ 1)”. The half-life at 1 μM is greater than 6.67 h in [2] and 2.5 to 6.67 h in [3]. Also, the values for the fraction unbound at 4 h, 10 μM in series [4] and in [5] were 0.05 to 0.25 and 0.005 to 0.05, respectively.

With `C[C@@H](c1cccc2c(-c3ccc(CS(C)(=O)=O)c(F)c3)c(C(=O)O)[nH]c12)N1CC2(CCC(N)CC2)OC1=O` (stereo partly drawn) [IC-71, (S)-7-(1-(8-amino-2-oxo-1-oxa-3-azaspiro[4.5]decan-3-yl)ethyl)-3-(3-fluoro-4-((methylsulfonyl)methyl)phenyl)-1H-indole-2-carboxylic acid], the IC50 on VIM-2 was 1 to 10 nM; at NDM-1, 1 to 10 nM; at IMP-1, greater than 10 nM; on VIM-1, greater than 10 nM. Besides, in [1], the “MIC values AB NDM-1” value is recorded as “C (C = MIC values > 8)”. Moreover, the “MIC values EC NDM-7” value against Escherichia coli NDM-7 is on record as “A (A = MIC values ≤ 1)”. Further, the “MIC values EC NDM-1” value in the series with Escherichia coli NDM-1 is “B (B MIC values 2 ÷ 8)”. Besides, the half-life at 1 μM in [2] was greater than 6.67 h; in series [3], 2.5 to 6.67 h. Further, the fraction unbound at 4 h, 10 μM in series [4] and in [5] was greater than 0.25 each time.

As for `CC(c1cccc2c(-c3ccc(CS(C)(=O)=O)c(F)c3)c(C(=O)O)[nH]c12)n1cc(CCC2(N)CC2)oc1=O` (stereo not shown) [IC-74, 7-(1-(5-(2-(1-aminocyclopropyl)ethyl)-2-oxooxazol-3(2H)-yl)ethyl)-3-(3-fluoro-4-((methylsulfonyl)methyl)phenyl)-1H-indole-2-carboxylic acid], the IC50 was 0.1 to 1 nM at VIM-2, less than 0.1 nM on NDM-1, greater than 10 nM on IMP-1 and 0.1 to 1 nM on VIM-1. For the same molecule, the “MIC values AB NDM-1” value in series [1] is on record as “B (B MIC values 2 ÷ 8)”. Besides, in the series with Escherichia coli NDM-7, the “MIC values EC NDM-7” value is recorded as “A (A = MIC values ≤ 1)”. In the series with Escherichia coli NDM-1, the “MIC values EC NDM-1” value was “A (A = MIC values ≤ 1)”. Moreover, the half-life at 1 μM in [2] is greater than 6.67 h; in series [3], less than 2.5 h. For the same molecule, the fraction unbound at 4 h, 10 μM in series [4] and in series [5] was 0.05 to 0.25 throughout.

Turning to `CC(c1cccc2c(-c3ccc(CS(C)(=O)=O)c(F)c3)c(C(=O)O)[nH]c12)n1cc(CN)oc1=O` (stereo not shown) [IC-79, 7-(1-(5-(Aminomethyl)-2-oxooxazol-3(2H)-yl)ethyl)-3-(3-fluoro-4-((methylsulfonyl)methyl)phenyl)-1H-indole-2-carboxylic acid], the IC50 at VIM-2 was 1 to 10 nM; at NDM-1, 0.1 to 1 nM; at IMP-1 it was greater than 10 nM; at VIM-1, 1 to 10 nM. Moreover, the “MIC values AB NDM-1” value in series [1] was “A (A = MIC values ≤ 1)”. Also, in the series with Escherichia coli NDM-7, the “MIC values EC NDM-7” value is “A (A = MIC values ≤ 1)”. Further, the “MIC values EC NDM-1” value against Escherichia coli NDM-1 is recorded as “A (A = MIC values ≤ 1)”. Besides, the half-life at 1 μM in series [2] was greater than 6.67 h; in [3], less than 2.5 h. For the same molecule, the fraction unbound at 4 h, 10 μM in [4] is greater than 0.25; in [5], 0.05 to 0.25.

Regarding `CC(c1cccc2c(-c3ccc(CS(C)(=O)=O)c(F)c3)c(C(=O)O)[nH]c12)n1cc(CNC(=O)CN)oc1=O` (stereo not shown) [IC-80, 7-(1-(5-((2-Aminoacetamido)methyl)-2-oxooxazol-3(2H)-yl)ethyl)-3-(3-fluoro-4-((methylsulfonyl)methyl)phenyl)-1H-indole-2-carboxylic acid], the IC50 on VIM-2 was 1 to 10 nM; on NDM-1, 0.1 to 1 nM; on IMP-1, greater than 10 nM; on VIM-1, 1 to 10 nM. The “MIC values AB NDM-1” value in [1] was “B (B MIC values 2 ÷ 8)”. Also, the “MIC values EC NDM-7” value in the series on Escherichia coli NDM-7 is given as “A (A = MIC values ≤ 1)”. Further, the “MIC values EC NDM-1” value against Escherichia coli NDM-1 is on record as “A (A = MIC values ≤ 1)”. In addition, the figures for the half-life at 1 μM in series [2] and in [3] were greater than 6.67 h and less than 2.5 h, respectively. The fraction unbound at 4 h, 10 μM in [4] was greater than 0.25; in series [5] it was 0.05 to 0.25.

(Values after patent publication US20240246913A1, “2-CARBOXYL-INDOLE INHIBITORS OF METALLO-BETA-LACTAMASES” (Oxford University Innovation Limited, priority 2021, published 2024).)
